“Also recorded” adds a separate entry of the source. Read-outs that look alike come from different tables or passages of the source.
Key:
SpNanC [1] = biological target: T1, SpNanC (Streptococcus pneumoniae, UniProt A0A0H2UQE4); conditions: cited from earlier work
SpNanB [2] = biological target: T2, SpNanB (Streptococcus pneumoniae serotype 4, UniProt Q54727); conditions: cited from earlier work
IT-sialidase RgNanH = conditions: cited from earlier work
[3] = tested on: SpNanA, SpNanB, SpNanC, PmST1, BiNanH2, AuSialidase, CpNanI, VcSialidase, hNEU2; experiment: Sialidase inhibition assay at 1 mM, whole panel of sialidases tested; format: biochemical; conditions: inhibitor 1 mM
SpNanB [4] = biological target: T2, SpNanB; experiment: SpNanB-catalyzed hydrolysis assay; format: biochemical; conditions: 10 mM compound, SpNanB 1 mg/mL, NaOAc pH 6.0 or Tris-HCl pH 7.0, 24 h
SpNanA [5] = biological target: T3, SpNanA (Streptococcus pneumoniae, UniProt P62575); experiment: Sialidase inhibition assay, 384-well colorimetric, Neu5Acα2–3GalβpNP substrate; format: biochemical; conditions: inhibitor 1 mM
SpNanC [6] = biological target: T1, SpNanC; experiment: as above; format: biochemical
SpNanB [7] = biological target: T2, SpNanB; experiment: as above; format: biochemical; conditions: for Inhibitory activity against SpNanB: inhibitor 1 mM
AuSialidase = AuSialidase (Paenarthrobacter ureafaciens, UniProt Q5W7Q2); experiment: as above; format: biochemical, Arthrobacter ureafaciens; conditions: inhibitor 1 mM
VcSialidase = VcSialidase (Vibrio cholerae serotype O1, UniProt P0C6E9); experiment: as above; format: biochemical
SpNanA [8] = biological target: T3, SpNanA; conditions: cited from earlier work

T3 sequence (P62575 54-1035): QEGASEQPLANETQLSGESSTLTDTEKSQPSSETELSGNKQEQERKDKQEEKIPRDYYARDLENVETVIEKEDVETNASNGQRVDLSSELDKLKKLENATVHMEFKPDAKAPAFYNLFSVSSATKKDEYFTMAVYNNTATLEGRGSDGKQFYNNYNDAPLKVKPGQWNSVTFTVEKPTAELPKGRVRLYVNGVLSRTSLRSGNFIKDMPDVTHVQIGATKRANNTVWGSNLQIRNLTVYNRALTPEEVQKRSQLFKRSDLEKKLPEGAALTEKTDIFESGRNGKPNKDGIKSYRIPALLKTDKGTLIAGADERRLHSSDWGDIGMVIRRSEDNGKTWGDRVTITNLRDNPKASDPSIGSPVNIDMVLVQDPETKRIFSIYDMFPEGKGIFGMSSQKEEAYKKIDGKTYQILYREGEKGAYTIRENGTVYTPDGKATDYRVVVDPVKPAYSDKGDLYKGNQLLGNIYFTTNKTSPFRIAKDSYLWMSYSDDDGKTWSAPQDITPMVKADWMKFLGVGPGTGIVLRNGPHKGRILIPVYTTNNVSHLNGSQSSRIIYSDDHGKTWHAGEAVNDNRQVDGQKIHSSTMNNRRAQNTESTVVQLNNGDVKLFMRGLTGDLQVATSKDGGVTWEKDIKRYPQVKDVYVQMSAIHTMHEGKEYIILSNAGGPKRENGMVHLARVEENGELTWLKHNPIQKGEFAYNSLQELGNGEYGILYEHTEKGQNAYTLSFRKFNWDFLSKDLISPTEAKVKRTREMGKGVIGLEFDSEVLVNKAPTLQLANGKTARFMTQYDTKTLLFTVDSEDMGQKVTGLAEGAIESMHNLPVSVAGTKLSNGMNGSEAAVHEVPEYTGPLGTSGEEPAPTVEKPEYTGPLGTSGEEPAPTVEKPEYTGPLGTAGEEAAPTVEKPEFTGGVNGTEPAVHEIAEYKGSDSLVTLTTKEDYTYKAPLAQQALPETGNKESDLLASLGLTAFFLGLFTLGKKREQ
T2 sequence (Q54727 30-697): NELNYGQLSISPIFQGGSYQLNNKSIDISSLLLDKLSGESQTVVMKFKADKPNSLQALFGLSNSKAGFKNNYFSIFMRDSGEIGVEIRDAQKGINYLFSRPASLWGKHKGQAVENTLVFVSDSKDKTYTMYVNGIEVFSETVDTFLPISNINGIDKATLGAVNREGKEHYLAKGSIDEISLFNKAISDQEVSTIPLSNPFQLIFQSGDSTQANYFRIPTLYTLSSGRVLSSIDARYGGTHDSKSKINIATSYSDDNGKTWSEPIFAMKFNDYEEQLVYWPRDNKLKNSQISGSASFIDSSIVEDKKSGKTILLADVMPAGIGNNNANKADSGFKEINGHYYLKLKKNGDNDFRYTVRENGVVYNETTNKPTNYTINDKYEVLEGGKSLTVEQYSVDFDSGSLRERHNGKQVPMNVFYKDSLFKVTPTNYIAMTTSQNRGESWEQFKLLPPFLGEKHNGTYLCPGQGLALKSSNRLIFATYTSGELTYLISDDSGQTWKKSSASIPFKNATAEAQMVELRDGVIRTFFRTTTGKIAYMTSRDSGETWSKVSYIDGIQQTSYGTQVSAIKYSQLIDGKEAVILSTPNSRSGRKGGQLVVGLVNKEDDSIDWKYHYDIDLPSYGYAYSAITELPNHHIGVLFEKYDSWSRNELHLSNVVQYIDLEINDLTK
VcSialidase, sequence (P0C6E9 25-781): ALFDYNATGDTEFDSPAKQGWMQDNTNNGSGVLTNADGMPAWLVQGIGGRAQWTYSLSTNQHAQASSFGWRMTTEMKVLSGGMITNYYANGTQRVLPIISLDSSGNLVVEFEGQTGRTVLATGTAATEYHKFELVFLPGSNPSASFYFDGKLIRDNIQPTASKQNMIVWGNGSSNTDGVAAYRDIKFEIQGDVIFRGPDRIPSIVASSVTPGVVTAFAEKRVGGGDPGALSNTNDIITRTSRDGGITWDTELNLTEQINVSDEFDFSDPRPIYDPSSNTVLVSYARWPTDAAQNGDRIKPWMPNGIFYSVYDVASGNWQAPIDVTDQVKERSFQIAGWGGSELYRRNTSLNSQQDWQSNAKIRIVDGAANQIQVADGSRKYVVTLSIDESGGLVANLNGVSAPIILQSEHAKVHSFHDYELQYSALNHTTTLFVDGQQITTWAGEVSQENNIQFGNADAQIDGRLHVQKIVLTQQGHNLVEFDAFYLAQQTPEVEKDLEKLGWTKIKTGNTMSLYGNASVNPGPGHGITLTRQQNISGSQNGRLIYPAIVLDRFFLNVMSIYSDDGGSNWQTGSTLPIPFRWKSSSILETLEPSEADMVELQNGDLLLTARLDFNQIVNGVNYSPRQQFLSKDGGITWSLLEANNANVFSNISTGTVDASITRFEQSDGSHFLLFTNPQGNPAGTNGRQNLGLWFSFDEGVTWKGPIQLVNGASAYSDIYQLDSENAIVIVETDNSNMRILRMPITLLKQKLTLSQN

For `CCOC(=O)C1=C[C@@H](OC(CC)CC)[C@H](NC(C)=O)[C@@H](N)C1` [Oseltamivir], the “Inhibitory activity against SpNanC” value (SpNanC [1]; concentration up to 7.5 mM) is listed as “did not show inhibitory activity”, the “Inhibitory activity against SpNanB” value (SpNanB [2]; concentration up to 7.5 mM) is listed as “did not show inhibitory activity” and the “Inhibition of RgNanH” value (IT-sialidase RgNanH) is listed as “inhibited”.

For `CC(=O)N[C@H]1[C@H]2O[C@@](C(=O)O)(C[C@@H]1O)O[C@@H]2[C@H](O)CO` [compound 1, 5-Acetamido-2,7-anhydro-3,5-dideoxy-α-D-glycero-D-galacto-non-2-ulopyranosonic acid], the “Inhibition against any sialidases tested” value [3] was “no significant inhibition” and the “Hydrolysis by SpNanB” value (SpNanB [4]) was “can be hydrolyzed by SpNanB; also recorded: most 2,7-anhydro-Neu5Ac (1) was converted to Neu5Ac”.

In the case of `O=C(CCc1ccccc1)C[C@@H]1C[C@@H](c2ccccc2)c2c(cc(/C=C/c3ccccc3)oc2=O)O1` [katsumadain A], the “Inhibition against SpNanB” value (SpNanB [2]) is listed as “reported to be inhibitors”.

With `N[C@H]1[C@H]2O[C@@](C(=O)O)(C[C@@H]1O)O[C@@H]2[C@H](O)CO` [compound 3, 5-Amino-2,7-anhydro-3,5-dideoxy-α-D-glycero-D-galacto-non-2-ulopyranosonic acid] the “Inhibition against any sialidases tested” value [3] was “no significant inhibition”.

For `CC(=O)N[C@H]1[C@H]([C@H](O)[C@H](O)CO)OC(C(=O)O)=C[C@@H]1O` [Neu5Ac2en, 2,3-dehydro-2-deoxy-N-acetylneuraminic acid], the “IC50 against SpNanC” value (SpNanC [1]) is listed as “submillimolar range” and the “Inhibition against SpNanB” value (SpNanB [2]; other reports) is listed as “millimolar inhibitor”.

For `COc1cc2oc(-c3ccc(O)cc3O)c(CC=C(C)C)c(=O)c2c(O)c1/C=C/C(C)C` [artocarpin], the “Inhibition against SpNanB” value (SpNanB [2]) is given as “reported to be inhibitors”.

For `O=C(N[C@H]1[C@H]2O[C@@](C(=O)O)(C[C@@H]1O)O[C@@H]2[C@H](O)CO)C1CCCCC1` [compound 4, 2,7-Anhydro-5-cyclohexylamido-3,5-dideoxy-α-D-glycero-D-galacto-non-2-ulopyranosonic acid], the “Inhibitory activity against SpNanA” value (SpNanA [5]) was “noticeable inhibitory activity”, the “Inhibitory activity against SpNanC” value (SpNanC [6]; inhibitor 1 mM) was “noticeable inhibitory activity” and the “Hydrolysis by SpNanB” value (SpNanB [4]) was “resistant to SpNanB hydrolysis; also recorded: remained intact”. For the same compound, the “Inhibitory activity against SpNanB” value (SpNanB [7]) was “noticeable inhibitory activity”.

For `O=S(=O)(O)CCNC1CCCCC1` [CHES, 2-N-Cyclohexylaminoethanesulfonic acid], the “Inhibition against SpNanB” value (SpNanB [2]) is given as “weak inhibition”.

With `O=C(N[C@H]1[C@H]2O[C@@](C(=O)O)(C[C@@H]1O)O[C@@H]2[C@H](O)CO)C(F)(F)F` [compound 2, 2,7-Anhydro-3,5-dideoxy-5-trifluoroacetamido-α-D-glycero-D-galacto-non-2-ulopyranosonic acid] the “Inhibitory activity against AuSialidase” value (AuSialidase) was “some inhibitory activity”, the “Inhibitory activity against SpNanA” value (SpNanA [5]) was “some inhibitory activity” and the IC50 (SpNanC [6]) was greater than 1000 µM. The IC50 (SpNanB [7]) was 250 to 500 µM, the “Inhibitory activity against SpNanB” value (SpNanB [7]) was “some inhibitory activity” and the IC50 (VcSialidase) was 500 to 1000 µM. For the same compound, the “Inhibitory activity against VcSialidase” value (VcSialidase; inhibitor 1 mM) was “some inhibitory activity”.

For `O=C(CCCCCCCCc1ccc(O)c(O)c1)c1c(O)cccc1O` [malabaricone C], the “IC50 against SpNanC” value (SpNanC [1]) is listed as “submicromolar range”, the “IC50 against SpNanB” value (SpNanB [2]) is listed as “submicromolar range” and the “IC50 against SpNanA” value (SpNanA [8]) is listed as “submicromolar range”.
